We go through 28 molecules from patent US7786152B2, “Compound” (priority 2002, dated 2010).

A word on the inhibition: it is the drop in the measured response relative to a control, in per cent.

For the assay, the target named is T1, Human 11βHSD1 (Homo sapiens, UniProt P28845).
T1 construct: the enzyme source, native hepatic enzyme compared to recombinant enzyme; tissue XenoTech H0610/Lot 0210078; host or cells: human hepatic microsomes
The assay can be described thus: 11β HSD1 cortisol radioimmunoassay (RIA) with human hepatic microsomes. Type of assay: biochemical. Particulars: read-out: % inhibition of Human 11βHSD1 @ 10 μM. How it is done: Biological Assay Development Using Human 11β-Hydroxysteroid Dehydrogenase Type 1. Standard Operating Procedure for the 11β-Hydroxysteroid Dehydrogenase Type 1 Cortisol Radioimmunoassay. 11β HSD1 Cortisol RIA
Enzyme assay buffer: 30 mM Tris-HCL, pH 7.2 containing 1 mM EDTA
Antibody binding buffer: 50 mM Tris-HCL, pH 8, containing 0.1 M NaCl and 0.1% gelatin
Dilute into assay buffer 1 in 25. Also dilute neat DMSO 1 in 25 into assay buffer for controls.
Dilute this 1 in 50 into assay buffer.
Prepare NADPH as a 1.8 mg/ml solution in assay buffer.
Mix these 3 solutions 1:1:1 to make a solution of sufficient volume for 25 μl additions to each sample. Add 0.5 μCi tritiated cortisone per 25 μl and mix the solution well.
Microsome preparation: Dilute stock 20 mg/ml solution 1 in 100 with assay buffer.
Dextran coated charcoal preparation: Make a 20 mg/ml solution in antibody binding buffer and chill on ice.
Enzyme assay: To a u-bottom polypropylene 96 well plate add:
25 μl compound dilution or diluted DMSO to controls, NSB's and blanks
10 μl 1 mM GA in DMSO (enzyme stop solution) to blanks
25 μl substrate mixture to all samples
50 μl diluted microsomes to all samples
Incubate plate for 30 min at 37° C. shaking
Add 10 μl enzyme stop solution to all wells except the blanks
Add 100 μl antibody solution to all wells except the NSB's, add antibody binding buffer to these wells
Incubate at 37° C. for 1 h
Chill plate on ice for 15 min
Add 50 μl/well charcoal solution and mix with an 8-channel pipette (4-5 aspirations)
Centrifuge at 4° C., 2000×g for 15 min
Transfer 100 μl supernatant into an Optiplate, also add 25 μl substrate mixture to 2 empty wells to indicate counting efficiency
Add 200 μl Microscint-40 to all wells and count on a Topcount
The 11β HSD1 enzyme assay was carried out following the standard operating procedure described above in u-bottom polypropylene 96 well plates or 1.5 ml Eppendorf tubes as indicated for each experiment. Subsequent to stopping the enzyme reaction, 100 μl antibody prepared in buffer 3 unless otherwise indicated was added to test samples and 100 μl buffer 3 was added to the NSB samples. The samples were incubated for 1 hour at 37° C. and the chilled on ice for 15 mins. Dextran coated charcoal (50 μl/sample) prepared to the indicated concentration in buffer 3 was added and the samples were mixed (vortex for tubes and aspiration 5 times with an 8-channel pipette for 96 well plates) and chilled for a further 10 min. The samples were centrifuged at 2000×g for 15 min at 4° C. to pellet the charcoal. Aliquots of the supernatant (100 μl) were transferred to an Optiplate and counted on the Topcount in 150-200 μl Microscint 40. In some experiments, aliquots of supernatant were transferred to scintillation vials and counted on the Tricarb LSC in 5 ml Ultima Gold scintillant.
Substrate saturation was examined. The enzyme assay was carried out exactly described in the methods section, in Buffer 3 with 10 μg/well microsomal protein and with [cold cortisone] as indicated. [3H]-cortisone was 0.5 μCi/sample throughout. The reaction was stopped after 30 min by the addition of 10 μl stop solution. The RIA was carried out exactly as indicated in the methods section.
It is reported that DMSO can both increase and reduce microsomal enzyme activity, depending on the concentration, presumably due to effects on the microsomal membranes.

T1 sequence (P28845 whole entry): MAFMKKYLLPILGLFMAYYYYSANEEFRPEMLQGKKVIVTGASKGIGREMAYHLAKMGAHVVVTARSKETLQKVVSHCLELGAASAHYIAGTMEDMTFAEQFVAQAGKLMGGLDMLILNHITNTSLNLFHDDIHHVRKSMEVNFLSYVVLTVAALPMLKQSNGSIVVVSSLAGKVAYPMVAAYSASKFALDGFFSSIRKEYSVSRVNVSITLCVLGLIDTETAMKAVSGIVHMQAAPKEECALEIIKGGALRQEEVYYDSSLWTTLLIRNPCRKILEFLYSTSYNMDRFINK

On to `Cc1nc2cc(NS(=O)(=O)c3ccc(Cl)cc3Cl)ccc2s1` [compound 412], for which the inhibition at 10 µM worked out at 36%. Next, `Cc1nc2cc(NS(=O)(=O)c3cccc(Cl)c3C)ccc2s1` [compound 413]: 29%; `CCCc1ccc(S(=O)(=O)Nc2ccc3sc(C)nc3c2)cc1` [compound 421]: 42%. The figure for `COc1ccc(S(=O)(=O)Nc2ccc3sc(C)nc3c2)cc1` [compound 424] is 47%; for `Cc1nc2cc(NS(=O)(=O)c3c(C)cccc3Cl)ccc2s1` [compound 425] it is 41%; for `Cc1nc2cc(N(C)S(=O)(=O)c3cccc(Cl)c3C)ccc2s1` [compound 469] it is 66%. The figure for `CCN(c1ccc2sc(C)nc2c1)S(=O)(=O)c1cccc(Cl)c1C` [compound 470] is 54%; for `Cc1nc2cc(NS(=O)(=O)c3ccc(Br)cc3)ccc2s1` [compound 519] it is 48%.

Take `Cc1nc2cc(NS(=O)(=O)c3ccc(-c4ccccc4)cc3)ccc2s1` [compound 521]: the inhibition at 10 µM amounted to 60%.

Consider `Cc1nc2cc(NS(=O)(=O)c3c(Cl)cc(Cl)cc3Cl)ccc2s1` [compound 522], for which the inhibition at 10 µM came out at 47%. Next, `Cc1nc2cc(NS(=O)(=O)c3ccc(Br)cc3C)ccc2s1` [compound 523]: 61%; `Cc1nc2cc(NS(=O)(=O)c3cccc4cccnc34)ccc2s1` [compound 552]: 45%; `Cc1nc2cc(NS(=O)(=O)c3cccc4ccccc34)ccc2s1` [compound 553]: 48%.

With `Cc1nc2cc(NS(=O)(=O)c3cccc4c(N(C)C)cccc34)ccc2s1` [compound 554], the inhibition at 10 µM amounted to 53%. The figure for `Cc1nc2cc(NS(=O)(=O)c3cc(Cl)ccc3Cl)ccc2s1` [compound 580] is 30%; for `Cc1nc2cc(NS(=O)(=O)c3ccc4c(c3)CN(C(=O)C(F)(F)F)CC4)ccc2s1` [compound 581] it is 29%. Next, `COc1ccc(Cl)cc1S(=O)(=O)Nc1ccc2sc(C)nc2c1` [compound 582]: 34%; `Cc1nc2cc(NS(=O)(=O)c3ccccc3C#N)ccc2s1` [compound 583]: 28%. On to `COc1cc(C)ccc1S(=O)(=O)Nc1ccc2sc(C)nc2c1` [compound 584], for which the inhibition at 10 µM was determined as 20%.

On to `Cc1nc2cc(NS(=O)(=O)c3ccc(Oc4ccccc4)cc3)ccc2s1` [compound 585], for which the inhibition at 10 µM amounted to 58%. For `CC(=O)c1ccccc1S(=O)(=O)Nc1ccc2sc(C)nc2c1` [compound 701], the inhibition at 10 µM stood at 41%. Next, `Cc1nc2cc(NS(=O)(=O)c3c(C(C)C)cc(C(C)C)cc3C(C)C)ccc2s1` [compound 703]: 37%. The figure for `Cc1nc2cc(NS(=O)(=O)c3ccc(C(C)C)cc3)ccc2s1` [compound 704] is 44%; for `COC(=O)c1ccccc1S(=O)(=O)Nc1ccc2sc(C)nc2c1` [compound 705] it is 28%. The figure for `COc1c(C)c(C)c(S(=O)(=O)Nc2ccc3sc(C)nc3c2)c(C)c1C` [compound 708] is 21%; for `Cc1nc2cc(NS(=O)(=O)c3ccc(C(C)(C)C)cc3)ccc2s1` [compound 709] it is 49%; for `Cc1nc2cc(NS(=O)(=O)c3c(C)c(C)c(C)c(C)c3C)ccc2s1` [compound 710] it is 35%. As for `CCSc1nc2ccc(NS(=O)(=O)c3cccc(Cl)c3C)cc2s1` [compound 751], the inhibition at 10 µM came to 22%.
